Reference: patent US6992105B2, “Dipeptide derivatives” (Novartis AG, priority 2001, dated 2006)
Ends that are not written are not given here.

target: angiotensin converting enzyme (ACE) (Homo sapiens, UniProt P12821); assay: in vitro inhibition of ACE (hippuryl-histidyl-leucine substrate); format: biochemical; conditions: ACE in vitro assay
Experimental: In vitro testing is most appropriate for the free carboxylic acids of the invention. The test compound is dissolved in dimethyl sulfoxide, ethanol or 0.25 M sodium bicarbonate solution, and the solution is diluted with buffer to the desired concentration.
The buffer for the ACE assay is 300 mM NaCl, 100 mM KH2PO4 (pH 8.3). The reaction is initiated by the addition of 100 μL of hippuryl-histidyl-leucine (2 mg/mL) to tubes containing enzyme and drug in a volume of 150 μL and tubes are incubated for 30 minutes at 37° C. The reaction is terminated by the addition of 0.75 mL 0.6 N NaOH. 100 μL of freshly prepared O-pthaldehyde solution (2 mg/mL in methanol) is added to the tubes, the contents are mixed and allowed to stand at room temperature. After 10 minutes, 100 μL of 6 N HCl is added. The tubes are centrifuged and the supernatant optical density is read at 360 nm. The results are plotted against drug concentration to determine the IC50, i.e., the drug concentration which gives half the activity of the control sample containing no drug.

Sequence of angiotensin converting enzyme (ACE) (P12821 30-1306, species assumed): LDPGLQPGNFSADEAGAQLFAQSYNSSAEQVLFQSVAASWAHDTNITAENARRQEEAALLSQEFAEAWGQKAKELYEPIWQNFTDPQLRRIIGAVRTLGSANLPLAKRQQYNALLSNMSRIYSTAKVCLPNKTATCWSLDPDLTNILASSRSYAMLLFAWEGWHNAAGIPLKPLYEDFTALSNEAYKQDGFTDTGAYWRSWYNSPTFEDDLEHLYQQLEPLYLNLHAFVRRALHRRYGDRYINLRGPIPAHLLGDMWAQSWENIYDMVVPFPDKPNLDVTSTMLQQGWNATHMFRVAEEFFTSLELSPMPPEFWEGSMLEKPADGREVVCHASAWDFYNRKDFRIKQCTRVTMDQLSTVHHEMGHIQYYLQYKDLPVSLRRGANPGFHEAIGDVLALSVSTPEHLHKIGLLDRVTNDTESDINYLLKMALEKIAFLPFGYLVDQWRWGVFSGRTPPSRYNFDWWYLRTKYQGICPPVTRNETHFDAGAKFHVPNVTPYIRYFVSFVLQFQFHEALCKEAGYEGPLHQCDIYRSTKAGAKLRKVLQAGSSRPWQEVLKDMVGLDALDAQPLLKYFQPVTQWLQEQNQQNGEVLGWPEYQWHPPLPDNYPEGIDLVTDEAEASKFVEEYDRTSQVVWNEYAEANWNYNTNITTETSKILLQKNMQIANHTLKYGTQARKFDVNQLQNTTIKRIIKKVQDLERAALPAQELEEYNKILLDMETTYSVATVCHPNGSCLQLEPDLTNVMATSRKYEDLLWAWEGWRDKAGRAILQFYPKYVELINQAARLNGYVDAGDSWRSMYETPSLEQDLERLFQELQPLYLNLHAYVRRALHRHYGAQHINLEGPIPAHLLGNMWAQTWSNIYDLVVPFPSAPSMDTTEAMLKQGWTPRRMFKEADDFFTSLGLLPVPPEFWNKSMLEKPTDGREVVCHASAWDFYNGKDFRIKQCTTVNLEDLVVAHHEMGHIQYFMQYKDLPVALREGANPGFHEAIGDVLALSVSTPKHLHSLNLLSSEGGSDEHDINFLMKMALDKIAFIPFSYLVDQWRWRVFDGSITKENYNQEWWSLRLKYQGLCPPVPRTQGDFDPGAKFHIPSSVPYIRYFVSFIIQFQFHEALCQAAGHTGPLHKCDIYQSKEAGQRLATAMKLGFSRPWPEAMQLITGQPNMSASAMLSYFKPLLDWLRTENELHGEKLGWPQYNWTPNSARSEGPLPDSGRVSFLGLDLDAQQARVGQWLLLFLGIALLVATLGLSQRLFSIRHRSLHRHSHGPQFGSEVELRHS

| Compound | IC50 |
| --- | --- |
| CC(C)[C@H](S)C(=O)NC(C)(C)C(=O)N[C@@H](COCc1ccccc1)C(=O)O [Example 6(a), N-[2-[(S)-2-Mercapto-3-methylbutanoylamino]-2-methylpropionyl]-O-benzyl-L-serine] | ~20 nM |

tested on: not given; assay: not given; conditions: not given

| Compound | melting point |
| --- | --- |
| CC(C)[C@H](S)C(=O)NC(C)(C)C(=O)N[C@H](C(=O)O)[C@@H](C)OCc1ccccc1 [Example 6(d), N-[2-[(S)-2-mercapto-3-methylbutanoylamino]-2-methylpropionyl]-O-benzyl-L-threonine] | 61 to 64 °C |
| CC(C)[C@H](S)C(=O)NC(C)(C)C(=O)N[C@@H](COCc1ccc(F)cc1)C(=O)O [Example 6(f), N-[2-[(S)-2-mercapto-3-methylbutanoylamino]-2-methylpropionyl]-O-(4-fluorobenzyl)-L-serine] | 50 to 54 °C |
| CCOC(=O)[C@H](COCc1ccccc1)NC(=O)C(C)(C)NC(=O)[C@@H](SC(=O)Cn1cncn1)C(C)C [Example 1(p), N-[2-[(S)-2-[(1-(1,2,4)-triazolyl)acetylthio]-3-methylbutanoylamino]-2-methylpropionyl]-O-benzyl-L-serine ethyl ester] | 106 to 107 °C |
| CC(C)(NC(=O)[C@@H](S)C1CCOCC1)C(=O)N[C@@H](COCc1ccccc1)C(=O)O [Example 6(j), N-[2-[(S)-2-mercapto-2-(4-tetrahydropyranyl)acetylamino]-2-methylpropionyl]-O-benzyl-L-serine] | 184 to 189 °C |
| CC(C)[C@H](S)C(=O)NC(C)(C)C(=O)N[C@@H](CCOc1ccc(F)cc1)C(=O)O [Example 6(g), N-[2-[(S)-2-mercapto-3-methylbutanoylamino]-2-methylpropionyl]-O-(4-fluorophenyl)-L-homoserine] | 127 to 128 °C |
| CCOC(=O)[C@H](COCc1ccccc1)NC(=O)C(C)(C)NC(=O)[C@@H](SC(=O)CN1CCN(C)CC1)C(C)C [Example 1(q), N-[2-[(S)-2-[(4-methylpiperazino)acetylthio]-3-methylbutanoylamino]-2-methylpropionyl]-O-benzyl-L-serine ethyl ester] | 95 to 96 °C |
| CC(C)[C@H](S)C(=O)NC1(C(=O)N[C@@H](COCc2ccccc2)C(=O)O)CCCC1 [Example 6(b), N-[1-[(S)-2-mercapto-3-methylbutanoylamino]-cyclopentanecarbonyl]-O-benzyl-L-serine] | 132 to 136 °C |

Continued, values first:

| melting point | Compound |
| --- | --- |
| 81 to 87 °C | CC(C)[C@H](S)C(=O)NC(C)(C)C(=O)N[C@@H](CSCc1ccccc1)C(=O)O [Example 6(c), N-[2-[(S)-2-mercapto-3-methylbutanoylamino]-2-methylpropionyl]-S-benzyl-L-cysteine] |
| 128 to 130 °C | CC(C)(NC(=O)[C@@H](S)C(C)(C)C)C(=O)N[C@@H](COCc1ccccc1)C(=O)O [Example 6(e), N-[2-[(S)-2-mercapto-3,3-dimethylbutanoylamino]-2-methylpropionyl]-O-benzyl-L-serine] |
| 121 to 122 °C | CCOC(=O)[C@@H](NC(=O)C(C)(C)NC(=O)[C@@H](SC(C)=O)C(C)C)[C@@H](C)OCc1ccccc1 [Example 1(c), N-[2-[(S)-2-acetylthio-3-methylbutanoylamino]-2-methylpropionyl]-O-benzyl-L-threonine ethyl ester] |
| 50 to 56 °C | CC(C)[C@H](S)C(=O)NC(C)(C)C(=O)N[C@@H](CCOc1cccc(F)c1)C(=O)O [Example 6(h), N-[2-[(S)-2-mercapto-3-methylbutanoylamino]-2-methylpropionyl]-O-(3-fluorophenyl)-L-homoserine] |

target: T1, NEP (EC 3.4.24.11) (Rattus norvegicus, UniProt P07861); assay: in vitro inhibition of NEP (GAAP substrate, rat kidney cortex membranes); format: biochemical; conditions: substrate glutaryl-Ala-Ala-Phe-2-naphthylamide (GAAP)
T1 construct: protein (rat kidney cortex membranes prepared by method of Maeda et al., 1983); from tissue; host or cells: rat kidney cortex membranes
T1 sequence (P07861 1-750): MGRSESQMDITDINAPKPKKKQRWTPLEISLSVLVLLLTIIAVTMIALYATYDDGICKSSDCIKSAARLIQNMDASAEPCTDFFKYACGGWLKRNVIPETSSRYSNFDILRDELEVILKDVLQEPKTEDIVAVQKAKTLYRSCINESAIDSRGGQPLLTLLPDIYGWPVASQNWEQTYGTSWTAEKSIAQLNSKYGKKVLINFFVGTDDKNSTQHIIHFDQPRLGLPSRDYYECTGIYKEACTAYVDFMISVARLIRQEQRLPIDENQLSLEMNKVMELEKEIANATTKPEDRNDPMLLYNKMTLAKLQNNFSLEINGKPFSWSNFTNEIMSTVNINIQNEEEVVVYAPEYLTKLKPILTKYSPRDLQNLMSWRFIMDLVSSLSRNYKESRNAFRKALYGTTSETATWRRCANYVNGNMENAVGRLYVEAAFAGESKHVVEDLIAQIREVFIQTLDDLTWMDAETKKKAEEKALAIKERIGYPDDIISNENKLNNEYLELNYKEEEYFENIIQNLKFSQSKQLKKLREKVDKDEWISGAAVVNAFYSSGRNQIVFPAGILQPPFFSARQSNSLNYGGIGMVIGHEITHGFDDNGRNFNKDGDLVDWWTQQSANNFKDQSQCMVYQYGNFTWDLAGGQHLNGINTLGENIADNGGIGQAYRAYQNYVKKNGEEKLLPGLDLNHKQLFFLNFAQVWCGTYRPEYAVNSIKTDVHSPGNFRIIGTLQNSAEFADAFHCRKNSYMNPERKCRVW
Experimental: The in vitro inhibition of NEP (EC 3.4.24.11) can be determined as follows:
NEP 3.4.24.11 activity is determined by the hydrolysis of the substrate glutaryl-Ala-Ala-Phe-2-naphthylamide (GAAP) using a modified procedure of Orlowski and Wilk (1981). The incubation mixture (total volume 125 μL) contains 4.2 μL of protein (rat kidney cortex membranes prepared by method of Maeda et al., 1983), 50 mM tris buffer, pH 7.4 at 25° C., 500 μM substrate (final concentration), and leucine aminopeptidase M (2.5 μg). The mixture is incubated for 10 minutes at 25° C., and 100 μL of fast garnet (250 μg fast garnet/mL of 10% Tween 20 in 1 M sodium acetate pH 4.2) is added. Enzyme activity is measure spectrophotometrically at […]. One unit of NEP 24.11 activity is defined as 1 nmol of 2-naphthylamine released per minute at 25° C. at pH 7.4. IC50 values are determined, i.e., the concentration of test compound required for 50% inhibition of the release of 2-naphthylamine.
NEP activity can also be determined using ANF as a substrate. ANF degrading activity is determined by measuring the disappearance of rat-ANF (r-ANF) using a 3-minute reverse phase-HPLC separation. An aliquot of the enzyme in 50 mM tris HCl buffer, pH 7.4, is pre-incubated at 37° C. for 2 minutes and the reaction is initiated by the addition of 4 nmol of r-ANF in a total volume of 50 μL. […]

| Compound | IC50 |
| --- | --- |
| CC(C)[C@H](S)C(=O)NC(C)(C)C(=O)N[C@@H](COCc1ccccc1)C(=O)O [Example 6(a), N-[2-[(S)-2-Mercapto-3-methylbutanoylamino]-2-methylpropionyl]-O-benzyl-L-serine] | ~5 nM |

target: rabbit antibodies that recognize specifically the carboxyl terminal tryptophan of ET-1; assay: radioimmunoassay: displacement of [125I]ET-1 binding to anti-ET-1 antibodies; conditions: mean±SEM, n=3–5
Experimental: Diluted samples (200 μL) obtained from the above enzyme assay are incubated at 4° C. overnight with 25 μL each of [^125I]ET-1 (10,000 cpm/tube) and 1:20,000-fold diluted rabbit antibodies that recognize specifically the carboxyl terminal tryptophan of ET-1. Goat anti-rabbit antibodies coupled to magnetic beads (70 μg) are then added to each tube, and the reaction mixture is further incubated for 30 minutes at room temperature. The beads are pelleted using a magnetic rack. The supernatant is decanted, and the radioactivity in the pellet is counted in a gamma counter. Total and nonspecific binding are measured in the absence of non-radioactive ET-1 and anti-ET antibodies, respectively.

| Compound | IC50 for displacement of [125I]ET-1 binding to the antibodies |
| --- | --- |
| ET-1: endothelin-1, non-radioactive peptide formed from big ET-1 by ECE; standard in the RIA | 21 ± 2 fmol |
| big ET-1: human big ET-1, substrate of ECE-1 in the enzyme assay (CSCSSLMDKECVYFCHLDIIWVNTPEHVVPYGLGSPRS; ends and bridges not checked; cysteine pairing not given here; UniProt P05305 53-90, looked up) | 260,000±66,000 fmol |

tested on: angiotensin I induced pressor response (ACE); assay: inhibition of the angiotensin I induced pressor response in normotensive rats; format: in vivo, rat; conditions: 10 mg/kg i.v., conscious normotensive rats
Experimental: The in vivo test for i.v. administered compounds is performed with male, normotensive rats, which are conscious. A femoral artery and femoral vein are cannulated respectively for direct blood pressure measurement on i.v. administration of angiotensin I and i.v. or p.o. administration of a compound of this invention. After the basal blood pressure is stabilized, pressor responses to 3 or 4 challenges of 300 ng/kg angiotensin I i.v., at 15-minute intervals, are obtained. Such pressure responses are usually again obtained at 15, 30, 60 and 90 minutes, and then every hour up to 6 hours after i.v. or p.o. administration of the compound to be tested, and compared with the initial responses. Any observed decrease of said pressor response is an indication of ACE inhibition.

| Compound | duration of inhibition of the angiotensin I induced pressor response |
| --- | --- |
| CC(C)[C@H](S)C(=O)NC(C)(C)C(=O)N[C@@H](COCc1ccccc1)C(=O)O [Example 6(a), N-[2-[(S)-2-Mercapto-3-methylbutanoylamino]-2-methylpropionyl]-O-benzyl-L-serine] | 3 h |
